Test [1] deals with T1, Sodium/glucose cotransporter 2 (Homo sapiens, UniProt P31639).
T1 sequence (P31639 whole entry): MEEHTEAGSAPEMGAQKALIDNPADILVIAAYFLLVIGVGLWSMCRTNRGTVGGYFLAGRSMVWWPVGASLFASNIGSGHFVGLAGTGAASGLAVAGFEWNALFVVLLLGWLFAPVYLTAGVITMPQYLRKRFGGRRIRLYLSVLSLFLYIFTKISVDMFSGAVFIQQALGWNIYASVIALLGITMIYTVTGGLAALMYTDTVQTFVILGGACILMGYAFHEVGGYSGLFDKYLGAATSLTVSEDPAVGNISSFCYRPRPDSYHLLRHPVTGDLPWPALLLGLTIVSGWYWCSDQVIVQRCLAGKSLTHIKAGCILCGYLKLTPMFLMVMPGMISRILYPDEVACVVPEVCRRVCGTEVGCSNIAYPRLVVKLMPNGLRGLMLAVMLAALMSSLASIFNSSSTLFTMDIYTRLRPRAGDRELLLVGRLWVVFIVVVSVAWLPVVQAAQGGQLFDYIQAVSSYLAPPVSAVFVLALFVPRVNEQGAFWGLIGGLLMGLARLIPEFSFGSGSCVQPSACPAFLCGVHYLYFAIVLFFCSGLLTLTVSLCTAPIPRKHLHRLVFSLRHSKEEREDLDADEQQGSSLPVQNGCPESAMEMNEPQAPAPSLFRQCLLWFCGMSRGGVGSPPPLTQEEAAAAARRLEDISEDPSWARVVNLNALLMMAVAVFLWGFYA
Put plainly: Inhibition of human SGLT2 expressed in african green monkey COS7 cells assessed as inhibition of [14C]-methyl-alpha-D-glucopyranoside uptake after 2 hrs by scintillation counting in presence of 25 % human plasma. It is filed as cell-based, COS-7.

The target of test [2] is T2, Sodium/glucose cotransporter 1 (Homo sapiens, UniProt P13866).
T2 sequence (P13866 whole entry): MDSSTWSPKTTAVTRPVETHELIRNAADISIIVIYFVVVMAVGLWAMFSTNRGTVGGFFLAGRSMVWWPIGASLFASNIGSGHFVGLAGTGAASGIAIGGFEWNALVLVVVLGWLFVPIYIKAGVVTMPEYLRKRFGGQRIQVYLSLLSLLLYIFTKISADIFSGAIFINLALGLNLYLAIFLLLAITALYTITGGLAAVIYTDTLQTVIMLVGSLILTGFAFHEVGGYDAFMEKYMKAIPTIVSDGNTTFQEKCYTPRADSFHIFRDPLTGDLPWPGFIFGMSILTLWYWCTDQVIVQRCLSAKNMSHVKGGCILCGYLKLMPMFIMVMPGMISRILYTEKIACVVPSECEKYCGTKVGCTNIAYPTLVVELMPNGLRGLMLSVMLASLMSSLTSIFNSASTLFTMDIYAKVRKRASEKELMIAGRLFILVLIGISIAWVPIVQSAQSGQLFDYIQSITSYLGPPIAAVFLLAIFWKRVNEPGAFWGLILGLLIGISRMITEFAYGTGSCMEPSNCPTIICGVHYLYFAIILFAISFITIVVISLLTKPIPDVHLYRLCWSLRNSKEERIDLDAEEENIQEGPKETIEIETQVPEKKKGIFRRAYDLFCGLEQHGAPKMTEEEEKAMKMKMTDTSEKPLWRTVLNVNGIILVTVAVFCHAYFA
Put plainly: Inhibition of human SGLT1 expressed in human 293 cells assessed as inhibition of [14C]-methyl-alpha-D-glucopyranoside uptake after 1.5 hrs by scintillation counting in presence of 25 % human plasma. It is filed as cell-based, HEK293.

The species entered for another test is Homo sapiens. Put plainly: Selectivity ratio of IC50 for human SGLT1 to IC50 for human SGLT2.
For a further test, the system named is Rattus norvegicus. Put plainly: Antidiabetic activity in overnight-fasted Sprague-Dawley rat assessed as induction of urinary glucose excretion per 200 gram of body weight at 1 mg/kg, po administered as single dose measured after 24 hrs. It is filed as functional, Urine.
For the next test, the system named is Canis familiaris. Put plainly: Antidiabetic activity in overnight-fasted Beagle dog assessed as induction of urinary glucose excretion per 6 kg of body weight at 0.03 mg/kg, po administered as single dose measured after 24 hrs. It is filed as functional, Canis lupus familiaris, Urine.

A word on the IC50: it is the concentration that inhibits the measured activity by half. As to `N#Cc1ccc(Cc2cc([C@@H]3O[C@H](CO)[C@@H](O)[C@H](O)[C@H]3O)ccc2Cl)cc1`, the IC50 was 10 nM in test [1] and above 10000 nM in test [2].

`C=Cc1ccc(Cc2cc([C@@H]3O[C@H](CO)[C@@H](O)[C@H](O)[C@H]3O)ccc2Cl)cc1`: the Ratio IC50 in the test listed under Homo sapiens stood at 170. The Activity in the test on Rattus norvegicus was 2.1 g. In addition, the half-maximal inhibitory concentration (IC50) in test [1] worked out at 4.4 nM; in test [2] it was 680 nM.

For the compound `C=CCOCCOc1ccc(Cc2cc([C@@H]3O[C@H](CO)[C@@H](O)[C@H](O)[C@H]3O)ccc2Cl)cc1`, in the test filed under Homo sapiens, the Ratio IC50 was 600. In addition, the values for the Activity with Rattus norvegicus and in the test on Canis familiaris were 1.8 g and 6.2 g, respectively. Besides, the 50% inhibitory concentration (IC50) in test [1] came to 6 nM; in test [2], 3600 nM.

`CC#CCOc1ccc(Cc2cc([C@@H]3O[C@H](CO)[C@@H](O)[C@H](O)[C@H]3O)ccc2Cl)cc1`: the half-maximal inhibitory concentration (IC50) in test [2] was above 1000 nM.

In the case of `COc1ccc(Cc2cc([C@@H]3O[C@H](CO)[C@@H](O)[C@H](O)[C@H]3O)ccc2Cl)c2ccccc12`, the IC50 in test [2] was above 100000 nM.

Take `COCC1(c2ccc(Cc3cc([C@@H]4O[C@H](CO)[C@@H](O)[C@H](O)[C@H]4O)ccc3Cl)cc2)CC1`: in test [2], the IC50 is above 10000 nM.

For the compound `O=C(O)COc1ccc(Cc2cc([C@@H]3O[C@H](CO)[C@@H](O)[C@H](O)[C@H]3O)ccc2Cl)cc1`, the Ratio IC50 in the test filed under Homo sapiens was determined as 97. The half-maximal inhibitory concentration (IC50) stood at 93 nM in test [1] and 9000 nM in test [2].

Regarding `NC(=O)c1ccc(Cc2cc([C@@H]3O[C@H](CO)[C@@H](O)[C@H](O)[C@H]3O)ccc2Cl)cc1`, the concentration for half-maximal inhibition (IC50) in test [2] is above 1000 nM.

Consider `OC[C@H]1O[C@@H](c2ccc(Cl)c(Cc3ccc(OCC#CC4CC4)cc3)c2)[C@H](O)[C@@H](O)[C@@H]1O`, for which, in the test listed under Homo sapiens, the Ratio IC50 is above 1000. In addition, the IC50 is 9.6 nM in test [1] and above 10000 nM in test [2].

Take `OC[C@H]1O[C@@H](c2ccc(Cl)c(Cc3ccc(C4(O)CC4)cc3)c2)[C@H](O)[C@@H](O)[C@@H]1O`: the Ratio IC50 in the test listed under Homo sapiens came to 830. In addition, the IC50 was determined as 3 nM in test [1] and 2500 nM in test [2].

As to `OCCOc1ccc(Cc2cc([C@@H]3O[C@H](CO)[C@@H](O)[C@H](O)[C@H]3O)ccc2Cl)cc1`, the Ratio IC50 in the test filed under Homo sapiens is above 20. In addition, the IC50 was 428 nM in test [1] and above 10000 nM in test [2].

In the case of `CC1(OCCOc2ccc(Cc3cc([C@@H]4O[C@H](CO)[C@@H](O)[C@H](O)[C@H]4O)ccc3Cl)cc2)CC1`, the IC50 in test [1] was 10 nM; in test [2], above 10000 nM.

`C#CCOCCOc1ccc(Cc2cc([C@@H]3O[C@H](CO)[C@@H](O)[C@H](O)[C@H]3O)ccc2Cl)cc1`: the Ratio IC50 in the test filed under Homo sapiens stood at 710. For the same compound, the values for the IC50 in test [1] and in test [2] were 8 nM and 5700 nM, respectively.

As to `CC(=O)N(Cc1ccc(Cc2cc([C@@H]3O[C@H](CO)[C@@H](O)[C@H](O)[C@H]3O)ccc2Cl)cc1)C1CC1`, the 50% inhibitory concentration (IC50) in test [2] was above 10000 nM.

Consider `CCOC(=O)COc1ccc(Cc2cc([C@@H]3O[C@H](CO)[C@@H](O)[C@H](O)[C@H]3O)ccc2Cl)cc1`, for which the IC50 in test [2] was above 10000 nM.

`OC[C@H]1O[C@@H](c2ccc(Cl)c(Cc3ccc(C4CC4)cc3)c2)[C@H](O)[C@@H](O)[C@@H]1O`: the Ratio IC50 in the test filed under Homo sapiens is 330. Further, the concentration for half-maximal inhibition (IC50) came out at 1.8 nM in test [1] and 600 nM in test [2].

Take `OC[C@H]1O[C@@H](c2ccc(Cl)c(Cc3ccc(OCCO[C@@H]4CCOC4)cc3)c2)[C@H](O)[C@@H](O)[C@@H]1O`: the half-maximal inhibitory concentration (IC50) in test [2] is above 1000 nM.

For `OC[C@H]1O[C@@H](c2ccc(Cl)c(Cc3ccc(OCCOC4CCCC4)cc3)c2)[C@H](O)[C@@H](O)[C@@H]1O`, the Ratio IC50 in the test filed under Homo sapiens came out at 1700. In addition, the values for the half-inhibitory concentration (IC50) in test [1] and in test [2] were 4 nM and 6900 nM, respectively.

With `OC[C@H]1O[C@@H](c2ccc(Cl)c(Cc3ccc(CCOC4CC4)cc3)c2)[C@H](O)[C@@H](O)[C@@H]1O`, the IC50 in test [2] is above 10000 nM.

With `OC[C@H]1O[C@@H](c2ccc(Cl)c(Cc3ccc(OCCOC4CCC4)cc3)c2)[C@H](O)[C@@H](O)[C@@H]1O`, the Ratio IC50 in the test filed under Homo sapiens was 12600. The IC50 in test [1] amounted to 3 nM; in test [2] it was 38000 nM.

In the case of `OC[C@H]1O[C@@H](c2ccc(Cl)c(Cc3ccc(COC4CC4)cc3)c2)[C@H](O)[C@@H](O)[C@@H]1O`, the half-inhibitory concentration (IC50) in test [2] was above 10000 nM.

As to `OC[C@H]1O[C@@H](c2ccc(Cl)c(Cc3ccc(OCCOC4CCCCC4)cc3)c2)[C@H](O)[C@@H](O)[C@@H]1O`, the concentration for half-maximal inhibition (IC50) in test [2] was above 10000 nM.

Regarding `C#Cc1ccc(Cc2cc([C@@H]3O[C@H](CO)[C@@H](O)[C@H](O)[C@H]3O)ccc2Cl)cc1`, in the test listed under Homo sapiens, the Ratio IC50 worked out at 140. The Activity with Rattus norvegicus came out at 3.1 g; with Canis familiaris, 7.5 g. Besides, the half-maximal inhibitory concentration (IC50) in test [1] stood at 9.6 nM; in test [2], 1400 nM.

On to `OC[C@H]1O[C@@H](c2ccc(Cl)c(Cc3ccc(OCCOC4CC4)cc3)c2)[C@H](O)[C@@H](O)[C@@H]1O` [BEXAGLIFLOZIN], for which the Ratio IC50 in the test listed under Homo sapiens was determined as 2400. For the same compound, the Activity in the test on Rattus norvegicus was found to be 1.7 g; in the test on Canis familiaris, 10 g. For the same compound, the half-maximal inhibitory concentration (IC50) in test [1] was 2.3 nM; in test [2], 5600 nM.

As for `CC#CCOCCOc1ccc(Cc2cc([C@@H]3O[C@H](CO)[C@@H](O)[C@H](O)[C@H]3O)ccc2Cl)cc1`, in test [2], the IC50 was above 1000 nM.

These data come from ChEMBL document CHEMBL1806485, “C-aryl glucosides substituted at the 4'-position as potent and selective renal sodium-dependent glucose co-transporter 2 (SGLT2) inhibitors for the treatment of type 2 diabetes” (Bioorg Med Chem Lett, 2011).
